pIC50: −log10 of the molar value.
Legend:
in vitro = settings: human
SARS-CoV-2 [1] = experiment: SARS-CoV-2 virus production in Vero E6 cells (TCID50); type: cell-based; settings: for antiviral activity (conclusion, in words): SARS-CoV-2; for pIC50: Severe acute respiratory syndrome coronavirus 2, Vero C1008, TCID50, Vero E6 cells, MOI 10^−3; for virus production (in words): increased drug concentration, dose response
Description: (§1) Seeding of cells and treatment with compound of interest were performed with each compound in triplicate at 5 concentrations, including negative and positive controls. Infection with SARS-CoV-2 was performed at one MOI (multiplicity of infection). Viral particles were recovered in the supernatant after incubation and quantification using TCID50 (tissue culture infectious dose 50%) and RT-PCR was performed. Toxicity measurement of compounds was made on separate cell lines. D1: cell seeding on 96 wells plate, Vero E6 cells. Growth conditions: medium DMEM high glucose (Dutsher L0104-500, lot MS008A) D2: dilution of compounds was carried out in a mix of 100% DMSO diluted to 50% in PBS (NACL-2) or in PBS at […] to avoid solubility issues of some compounds. Compounds were tested at 5 concentrations, from 10^−4 M to 10^−8 M by serial tenfold dilutions. Infection with SARS-CoV-2 clinical strain was performed to MOI 10^−3. D3: viral titers were determined by TCID50 method and calculated by the Spearman & Kärber algorithm. RT-qPCR on gene E of SARS-CoV-2 was determined by Taqman One-Step RT-qPCR. Infection process: at T0 infection was performed with SARS-CoV-2 MOI 10^−3 (0.001). At T0+1 h virus was removed and the plates were washed with PBS (2×1 mL), 1 mL medium was then added with compound from 100 μM to 10 nM. A 24 h incubation step was carried out. At T0+25 h, 500 μL of supernatant was recovered and TCID50 processing and RT-qPCR were performed. Following 4 additional days of incubation the endpoint was obtained and TCI D50 reading and calculation was performed.

[2] = Toxicity testing on Vero cells; settings: African green monkey, Vero cells, CC50, Vero cells, 24 h post treatment
Vero cells = experiment: Toxicity testing on Vero cells; settings: for CC50: Vero cells, 24 h post treatment
SARS-CoV-2 [3] = experiment: SARS-CoV-2 genome copy number by RT-qPCR on gene E (Vero E6 cells); type: cell-based; settings: for genome copy number (in words): increased drug concentration
Description: as §1

| SMILES | CC50 (in vitro) [µM] | antiviral activity (conclusion, in words) (SARS-CoV-2 [1]) | pIC50 (SARS-CoV-2 [1]) | log decrease in viral production (SARS-CoV-2 [1]; at 10 μM) [log] | toxicity observed in virus production test (SARS-CoV-2 [1]; at 100 μM) | virus production (in words) (SARS-CoV-2 [1]) | IC50 times lower than that of Remdesivir (SARS-CoV-2 [1]; virus production IC50) [times] | CC50 at 24 h [2] [µM] | CC50 (Vero cells; listed as clitocine) [µM] | toxicity on Vero cells (in words) (Vero cells; depending on the concentration used) | pIC50 (SARS-CoV-2 [3]; Severe acute respiratory syndrome coronavirus 2, Vero C1008, RT-qPCR on gene E, Vero E6 cells) | log decrease in copy genome (SARS-CoV-2 [3]; at 10 μM) [log] | toxicity observed in RT-qPCR test (SARS-CoV-2 [3]; at 100 μM) | genome copy number (in words) (SARS-CoV-2 [3]) | IC50 times lower than that of NACI-1 (SARS-CoV-2 [1]; virus production IC50) [times] | CC50 (Vero cells) [µM] |
| --- | --- | --- | --- | --- | --- | --- | --- | --- | --- | --- | --- | --- | --- | --- | --- | --- |
| Nc1ncnc(N[C@@H]2O[C@H](CO)[C@@H](O)[C@H]2O)c1[N+](=O)[O-] [Compound 1, (2R,3R,4S,5R)-2-[(6-amino-5-nitropyrimidin-4-yl)amino]-5-(hydroxymethyl)oxolane-3,4-diol] | 108 | Potent antiviral activity | 6.73 | 3 | some toxicity was observed | decrease significantly | 5 | 3.09 | 3.09 | some degree of toxicity | 6.75 | ~2 | some toxicity was observed | decrease significantly | – | – |
| NC(=O)c1ncn([C@@H]2O[C@H](CO)[C@@H](O)[C@H]2O)c1O [Mizoribine, 1-[(2R,3R,4S,5R)-3,4-dihydroxy-5-(hydroxymethyl)oxolan-2-yl]-5-hydroxy-1H-imidazole-4-carboxamide] | 850 | Potent antiviral activity | 6.18 | – | – | decrease significantly | – | 191 | – | – | – | – | – | does not impact | 3 | 191 |

— US20230277575A1 (priority 2020, published 2023)
